Test system: uterine fibroids
Experiment: Phase 2 study of orally administered Formulation B in women with uterine fibroids
Type: in vivo, human
Excerpt: After menses occurred, a second 18 week course of treatment followed.

Which results are given for `COCC(=O)[C@@]1(OC(C)=O)CC[C@H]2[C@@H]3CCC4=CC(=O)CCC4=C3[C@@H](c3ccc(N(C)C)cc3)C[C@@]21C` [CDB-4124, 21-methoxy-17a-acetoxy-11β-(4 N, N-dimethylaminophenyl)-19-norpregna-4,9-diene-3,20-dione]?
reduction in fibroid size (volume) compared to baseline (oral 12 mg once per day, after two 18 week cycles, median, p=0.0004 vs placebo): 64.9%; subjects who achieved amenorrhea (oral 12 mg once per day, end of second 18 week course (36 weeks total active treatment)): 100%; improvement in Uterine Fibroid Symptom Severity Score (UFSQOL), LOCF median (oral 12 mg once per day, p=0.0211 vs placebo): 70.9%; subjects who achieved amenorrhea (vaginally treated subjects (comparison)): 50%
